For nine compounds, MIC results are on record in DBAASP.

Among the test systems are Bacillus subtilis; Escherichia coli; Klebsiella pneumoniae; Micrococcus luteus; Proteus mirabilis; Pseudomonas aeruginosa; Salmonella typhimurium; Shigella dysenteriae; Staphylococcus aureus; Candida albicans; Saccharomyces cerevisiae; Serratia marcescens; Escherichia coli BL21AI; Bacillus megaterium Bm11; Escherichia coli ML-35; Staphylococcus xylosus.
Common to all, as to assay: ≥ marks a high value that may be exact or a test limit, other limits are often not marked, values filed in µg/mL are converted to µM
The test system of assay [1] is Staphylococcus epidermidis.
The subject of assay [2] is Enterococcus faecalis NCTC 12697.
Assay [3] deals with Escherichia coli NCTC 10418.
The subject of assay [4] is Staphylococcus aureus ATCC 12493.
The subject of assay [5] is Escherichia coli ATCC 25726.
For assay [6], the system named is Staphylococcus aureus ATCC 25923.
Assay [7] has as its system Micrococcus luteus ATCC 10240.
Assay [8] has as its system Salmonella enterica subsp. enterica serovar Typhimurium ATCC 14028.
Assay [9] deals with Escherichia coli DH5alpha.

In brackets after ≈: the same amount, converted by molar mass.

For orientation: MIC means the lowest concentration found to suppress growth. Read a low MIC as inhibition by little substance.

Consider `CC(C)C[C@H](NC(=O)[C@H](C)NC(=O)CNC(=O)[C@H](CC(C)C)NC(=O)[C@@H](N)Cc1ccccc1)C(=O)N[C@@H](Cc1ccccc1)C(=O)N[C@@H](CCCCN)C(=O)N[C@@H](Cc1c[nH]c2ccccc12)C(=O)N[C@@H](C)C(=O)N[C@@H](CO)C(=O)N[C@@H](CCCCN)C(=O)O` [FLGALFKWASK], for which the MIC in the assay on Bacillus subtilis is 9.86 µM (≈ 12.5 µg/mL); in the assay on Escherichia coli, 19.7 µM (≈ 25 µg/mL); with Klebsiella pneumoniae, 9.86 µM (≈ 12.5 µg/mL); against Micrococcus luteus it was no less than 39.4 µM; against Proteus mirabilis it was no less than 158 µM; against Pseudomonas aeruginosa it was 158 µM (≈ 200 µg/mL). For the same compound, the MIC in the assay with Salmonella typhimurium was no less than 78.9 µM; in the assay with Shigella dysenteriae, 19.7 µM (≈ 25 µg/mL); against Staphylococcus aureus it was 9.86 µM (≈ 12.5 µg/mL); in assay [1], 19.7 µM (≈ 25 µg/mL).
For the compound `CC(C)C[C@H](NC(=O)[C@H](C)NC(=O)[C@H](Cc1c[nH]c2ccccc12)NC(=O)[C@H](CCCCN)NC(=O)[C@H](CC(C)C)NC(=O)[C@@H](N)Cc1ccccc1)C(=O)N[C@@H](CCCCN)C(=O)N[C@H](C(=O)N[C@@H](C)C(=O)N[C@@H](C)C(=O)N[C@@H](CCCCN)C(N)=O)C(C)C` [FLKWALKVAAK], the MIC in assay [2], in [3] and in [4] was no less than 512 µM each time.
`CC[C@H](C)[C@H](NC(=O)CN)C(=O)N[C@@H](Cc1ccccc1)C(=O)N[C@@H](CO)C(=O)N[C@@H](CCCCN)C(=O)N[C@@H](Cc1ccccc1)C(=O)NCC(=O)NCC(=O)N[C@@H](CCCCN)C(=O)N[C@@H](C)C(=O)N[C@H](C(=O)N[C@@H](CCCCN)C(=O)N[C@@H](CC(N)=O)C(=O)N[C@@H](CC(C)C)C(=O)N[C@@H](Cc1ccccc1)C(=O)N[C@H](C(=O)N[C@@H](CCCCN)C(=O)NCC(=O)N[C@@H](C)C(=O)N[C@@H](CCCCN)C(=O)N[C@@H](CC(N)=O)C(=O)N[C@H](C(=O)NCC(=O)N[C@@H](CCCCN)C(=O)N[C@@H](CCC(=O)O)C(=O)N[C@H](C(=O)NCC(=O)N[C@@H](CCSC)C(=O)N[C@@H](CC(=O)O)C(=O)N[C@H](C(=O)N[C@H](C(=O)N[C@@H](CCCN=C(N)N)C(=O)N[C@H](C(=O)NCC(=O)N[C@H](C(=O)N[C@@H](CC(=O)O)C(=O)N[C@H](C(=O)N[C@@H](C)C(=O)NCC(=O)N[C@H]1CSSC[C@@H](C(=O)O)NC(=O)[C@H](CCC(=O)O)NC(=O)CNC(=O)[C@H](CCCCN)NC(=O)[C@H]([C@@H](C)CC)NC(=O)[C@H](CCCCN)NC1=O)C(C)C)[C@@H](C)CC)[C@@H](C)O)[C@@H](C)CC)C(C)C)C(C)C)[C@@H](C)CC)[C@@H](C)CC)[C@@H](C)CC` [GIFSKFGGKAIKNLFIKGAKNIGKEVGMDVIRTGIDVAGCKIKGEC]: the MIC in assay [5] and in assay [6] was 13 µM (≈ 62.5 µg/mL) each time.
In the case of `CC[C@H](C)[C@H](NC(=O)CN)C(=O)N[C@@H](CC(C)C)C(=O)N[C@@H](CC(=O)O)C(=O)N[C@H](C(=O)N[C@@H](CC(C)C)C(=O)N[C@@H](CCCCN)C(=O)N[C@@H](CCC(N)=O)C(=O)N[C@@H](Cc1ccccc1)C(=O)N[C@@H](C)C(=O)N[C@@H](CCCCN)C(=O)NCC(=O)N[C@H](C(=O)NCC(=O)N[C@@H](CCCCN)C(=O)N[C@@H](CC(=O)O)C(=O)N[C@@H](CC(C)C)C(=O)N[C@H](C(=O)N[C@@H](CCCCN)C(=O)NCC(=O)N[C@@H](C)C(=O)N[C@@H](C)C(=O)N[C@@H](CCC(N)=O)C(=O)NCC(=O)N[C@H](C(=O)N[C@@H](CC(C)C)C(=O)O)C(C)C)C(C)C)C(C)C)[C@@H](C)O` [GILDTLKQFAKGVGKDLVKGAAQGVL], the MIC in the assay on Bacillus subtilis was 19 µM (≈ 50 µg/mL); in the assay with Candida albicans it was greater than 38.1 µM; in the assay with Escherichia coli it was 9.52 µM (≈ 25 µg/mL); against Micrococcus luteus, 0.952 µM (≈ 2.5 µg/mL); against Proteus mirabilis, 19 µM (≈ 50 µg/mL); in the assay on Pseudomonas aeruginosa, 19 µM (≈ 50 µg/mL). The MIC is 9.52 µM (≈ 25 µg/mL) against Saccharomyces cerevisiae; 28.5 µM (≈ 75 µg/mL) against Salmonella typhimurium; no less than 38.1 µM with Serratia marcescens; 9.52 µM (≈ 25 µg/mL) against Shigella dysenteriae; 28.5 µM (≈ 75 µg/mL) in assay [1].
On to `CC(C)C[C@H](NC(=O)[C@H](CCCN=C(N)N)NC(=O)[C@@H]1CCCN1C(=O)[C@H](Cc1cnc[nH]1)NC(=O)[C@@H]1CCCN1C(=O)[C@@H](NC(=O)[C@@H]1CCCN1C(=O)[C@H](CCCN=C(N)N)NC(=O)[C@@H]1CCCN1C(=O)[C@H](CO)NC(=O)[C@H](Cc1ccc(O)cc1)NC(=O)[C@@H]1CCCN1C(=O)[C@H](CCCN=C(N)N)NC(=O)[C@@H]1CCCN1C(=O)[C@H](CCCCN)NC(=O)CN)[C@@H](C)O)C(N)=O` [GKPRPYSPRPTPHPRL], for which the MIC amounted to 8.62 µM (≈ 16 µg/mL) in the assay on Escherichia coli BL21AI and 2.15 µM (≈ 4 µg/mL) in assay [7].
With `CC[C@H](C)[C@H](NC(=O)[C@@H]1CCCN1C(=O)[C@H](CCCN=C(N)N)NC(=O)[C@@H]1CCCN1C(=O)[C@H](Cc1cnc[nH]1)NC(=O)[C@H](CO)NC(=O)[C@@H](NC(=O)[C@@H]1CCCN1C(=O)[C@H](CCCN=C(N)N)NC(=O)[C@@H]1CCCN1C(=O)[C@H](CO)NC(=O)[C@H](Cc1ccc(O)cc1)NC(=O)[C@@H]1CCCN1C(=O)[C@H](CCCN=C(N)N)NC(=O)[C@@H]1CCCN1C(=O)[C@H](CCCCN)NC(=O)CN)[C@@H](C)O)C(=O)N[C@@H](CCCN=C(N)N)C(N)=O` [GKPRPYSPRPTSHPRPIR], the MIC in the assay with Escherichia coli BL21AI was no less than 61 µM; in assay [7], 3.81 µM (≈ 8 µg/mL).
As for `CC(C)C[C@H](NC(=O)[C@H](CCCN=C(N)N)NC(=O)[C@H](CCCN=C(N)N)NC(=O)[C@H](Cc1ccccc1)NC(=O)[C@H](CCCN=C(N)N)NC(=O)CN)C(=O)NCC(=O)N[C@@H](CCCN=C(N)N)C(=O)N[C@@H](CCCCN)C(=O)N[C@@H](Cc1ccccc1)C(=O)N[C@@H](CCCCN)C(=O)N[C@@H](CCCCN)C(=O)N[C@@H](CC(C)C)C(=O)N[C@@H](Cc1ccccc1)C(=O)N[C@@H](CCCCN)C(=O)N[C@@H](CCCCN)C(=O)N[C@@H](Cc1ccc(O)cc1)C(=O)NCC(=O)N1CCC[C@H]1C(=O)O` [GRFRRLGRKFKKLFKKYGP], the MIC in the assay with Bacillus megaterium Bm11 stood at 8 µM (≈ 19.1 µg/mL); in the assay on Escherichia coli ML-35, 4 µM (≈ 9.53 µg/mL); in [8], 8 µM (≈ 19.1 µg/mL); in [6] it was 8 µM (≈ 19.1 µg/mL).
`CC(C)C[C@H](NC(=O)[C@H](CC(C)C)NC(=O)[C@H](CC(C)C)NC(=O)[C@H](CC(C)C)NC(=O)[C@H](CC(C)C)NC(=O)[C@H](CCCCN)NC(=O)[C@H](CCCCN)NC(=O)[C@@H](N)CCCCN)C(=O)N[C@@H](CCCCN)C(=O)N[C@@H](CCCCN)C(=O)N[C@@H](CCCCN)C(=O)O` [KKKLLLLLKKK]: the MIC amounted to 16 µM (≈ 21.6 µg/mL) in assay [9] and 8 µM (≈ 10.8 µg/mL) in the assay on Staphylococcus xylosus.
Regarding `CC[C@H](C)[C@H](NC(=O)[C@H](CCCN=C(N)N)NC(=O)[C@H](CCCN=C(N)N)NC(=O)[C@@H]1CCCN1C(=O)[C@@H]1CCCN1C(=O)[C@H](CCCN=C(N)N)NC(=O)[C@@H]1CCCN1C(=O)[C@H](CCCN=C(N)N)NC(=O)[C@@H]1CCCN1C(=O)[C@H](CC(C)C)NC(=O)[C@H](Cc1ccc(O)cc1)NC(=O)[C@@H]1CCCN1C(=O)[C@@H]1CCCN1C(=O)[C@H](CCCCN)NC(=O)[C@H](CC(=O)O)NC(=O)[C@@H](N)C(C)C)C(=O)N[C@@H](Cc1ccc(O)cc1)C(=O)N[C@@H](CC(N)=O)C(=O)N[C@@H](CC(N)=O)C(=O)N[C@@H](CCCN=C(N)N)C(N)=O` [VDKPPYLPRPRPPRRIYNNR], the MIC (in the assay with Escherichia coli BL21AI; in assay [7]) was 3.19 µM (≈ 8 µg/mL) in each case.
